Data set [1] can be described thus: Rate of release of pheromone components from lures in laboratory wind tunnel. The following applies: for Mean release rate: 27° C., 8 km/hr wind speed; for Mean ratio (release rate to the major component): major component = 100. The format is physicochemical. Here is the method:
Measurements were made of the rates of release of the components from lures maintained in a laboratory wind tunnel at 27° C. and 8 km/hr wind speed. Volatiles were collected onto Porapak Q under same conditions for approximately 2 hours and the collections were analysed by Gas Chromatography with a flame ionisation detector using a polar column.
Release rates (ng/hr) and their ratios to the major component are shown.

Data set [2] deals with male midge EAG preparation (raspberry cane midge). Kind of data set: GC-EAG analysis with male midge EAG preparation. Also on record: species or system Resseliella theobaldi. The conditions noted are these: volatiles from female midges, polar GC column. Here is the method:
GC-EAG analyses were carried out with a […] GC (Agilent) fitted with capillary GC columns ([…]×0.32 mm i.d.) coated with polar (Wax10; Supelco) and non-polar (SPB 1; Supelco) phases. Injection was splitless (220° C.) and detection was by FID (250°). The oven temperature was programmed from 50° C. for 2 min, then at 10° C./min to 250° C. The GC column effluent was split (1:1) between the FID and a silanised glass T-piece in the column oven. Nitrogen (500 ml/min) was blown continuously over the EAG preparation and every 17 sec this was diverted through the T-piece for 3 sec, blowing the contents over the EAG preparation, as described by Cork et al. (1991).
Following experience working with other midge species, the EAG preparation was set up by suspending the whole insect between glass electrodes containing electrolyte (0.1 M potassium chloride with 10% polyvinylpyrrolidone added to reduce evaporation). The ends of both antennae were inserted into the recording electrode and the body into the reference electrode. The electrodes were inserted into silver/silver chloride electrodes held in micromanipulators on the portable EAG device developed by Syntech (INR-02; Syntech, Hilversum, The Netherlands).
Major female-specific component is at 14.24 min; 2-undecanone at 9.07 min, 2-acetoxyundecane at 9.77 min and 2-undecanol at 10.45 min. EAG signals at 13.2 min and 14.9 min are probably interference spikes.

Data set [3] concerns male raspberry cane midges. In words: Field studies: sticky traps baited with rubber septum or polythene vial lures in raspberry plantations. The conditions noted are these: for Mean total number males captured per trap (n): Log10(n + 1) / Mean total number males captured per trap (n): n: 11 May-7 Jun 2005, 10 plantations; for attractiveness to raspberry cane midge males (in words): field tests. The format is in vivo, Resseliella theobaldi. From the text:
• A) Sticky traps baited with a rubber septum or polythene vial lure containing 100 microgrammes of racemic 2-acetoxy-5-undecanone were deployed in ten raspberry plantations at Belks farm, Otham, Kent, Beech Farm, West Peckham Kent and East Malling Research between 11 May and 31 May 2005. An average of 153 male raspberry cane midges were caught, per trap, compared to an average of 1 in similar traps not baited with a lure. […] Sticky traps baited with a rubber septa or polythene vial lure containing 100 micrograms of racemic 2-acetoxy-5-undecanone alone or in admixture with 30 micrograms of racemic 2-undecanol, 30 micrograms of undecanone and 30 micrograms of racemic 2-undecyl acetate were deployed in ten raspberry plantations, 4 at Belks farm, Otham, Kent, 4 at Beech Farm, West Peckham Kent and 2 at East Malling Research, Kent between 11 May and 7 Jun. 2005 in a randomised complete block experimental design with the 10 different plantations as blocks.
The baited traps caught an average of 201 male raspberry cane midges per trap compared to an average of 1 in similar traps not baited with a lure.

A further data set concerns male apple leaf midges. Kind of data set: Field studies: sticky delta traps baited with synthetic lures in apple orchards. The format is in vivo, Dasineura mali. The following applies: for males caught: 19-27 May 2004; for attractiveness to male apple leaf midges (in words): in vivo; for average male midges caught: 5 replicate traps, 7 May-20 May 2004, East Malling; for average male apple leaf midges caught: 24-27 May 2004. From the text: A) Sticky delta traps baited with the synthetic lures impregnated with racemic (Z)-13-acetoxy-8-heptadecen-2-one were deployed in apple orchards. Large numbers of male apple leaf midges were caught in traps baited with the compound dispensed into the atmosphere from rubber septa.

The source of these data is patent US8071117B2, “Pheromones” (East Malling Research Limited, priority 2004, dated 2011).

Entries after “also recorded” stand apart in the source; their conditions may differ.

As to `CCCCCCCCCC(C)O` (racemic) [2-undecanol], the Mean release rate in data set [1] (Interval 3 days, Septa) amounted to 20.2 ng/h; in data set [1] (Interval 3 days, Vial), 19.5 ng/h; in data set [1] (Interval 5 days, Vial), 21.1 ng/h; in data set [1] (Interval 11 days, Septa) it was 27.4 ng/h; in data set [1] (Interval 11 days, Vial), 29.4 ng/h; in data set [1] (Interval 25 days, Vial), 17.4 ng/h. Moreover, in data set [1] (Interval 26 days, Septa), the Mean release rate was 7.4 ng/h. Further, the “Mean ratio (release rate to the major component)” value (“Mean ratio” below) in data set [1] (Interval 3 days, Septa) came to 25; in data set [1] (Interval 3 days, Vial), 52; in data set [1] (Interval 5 days, Vial), 45; in data set [1] (Interval 11 days, Septa), 81; in data set [1] (Interval 11 days, Vial), 36; in data set [1] (Interval 25 days, Vial) it was 25. For the same compound, the “Mean ratio” value in data set [1] (Interval 26 days, Septa) came out at 25. Also, in data set [2], the EAG response entry is “probably responses”.

Regarding `CCCCCCCCCC(C)OC(C)=O` (racemic) [2-undecyl acetate, 2-acetoxyundecane], the Mean release rate is 30.8 ng/h in data set [1] (Interval 3 days, Septa); 23.8 ng/h in data set [1] (Interval 3 days, Vial); 20.6 ng/h in data set [1] (Interval 5 days, Vial); 14.5 ng/h in data set [1] (Interval 11 days, Septa); 31.7 ng/h in data set [1] (Interval 11 days, Vial); 21.8 ng/h in data set [1] (Interval 25 days, Vial). The compound further registered a Mean release rate in data set [1] (Interval 26 days, Septa) of 8.9 ng/h. Besides, the “Mean ratio” value was found to be 38 in data set [1] (Interval 3 days, Septa); 64 in data set [1] (Interval 3 days, Vial); 44 in data set [1] (Interval 5 days, Vial); 43 in data set [1] (Interval 11 days, Septa); 39 in data set [1] (Interval 11 days, Vial); 31 in data set [1] (Interval 25 days, Vial). Also, the “Mean ratio” value in data set [1] (Interval 26 days, Septa) is 30. Also, the EAG response entry in data set [2] is reported as “probably responses”.

Take `CCCCCCC(=O)CCC(C)OC(C)=O` (racemic) [racemic 2-acetoxy-5-undecanone, 2-acetoxy-5-undecanone]: the Mean release rate in data set [1] (Interval 3 days, Septa) is 81.8 ng/h; in data set [1] (Interval 3 days, Vial), 37.1 ng/h; in data set [1] (Interval 5 days, Vial), 47.0 ng/h; in data set [1] (Interval 11 days, Septa), 33.8 ng/h; in data set [1] (Interval 11 days, Vial), 81.8 ng/h; in data set [1] (Interval 25 days, Vial), 69.8 ng/h. Further, the Mean release rate in data set [1] (Interval 26 days, Septa) was found to be 29.5 ng/h. The “Mean ratio” value in data set [1] (Interval 3 days, Septa) was 100; in data set [1] (Interval 3 days, Vial), 100; in data set [1] (Interval 5 days, Vial) it was 100; in data set [1] (Interval 11 days, Septa) it was 100; in data set [1] (Interval 11 days, Vial), 100; in data set [1] (Interval 25 days, Vial), 100. The “Mean ratio” value in data set [1] (Interval 26 days, Septa) is 100. For the same compound, the “average male raspberry cane midges caught per trap” value in data set [3] (100 microgrammes lure, rubber septum or polythene vial, ten plantations, 11 May-31 May 2005) came to 153. For the same compound, the “Mean total number males captured per trap (n): Log10(n + 1)” value amounted to 1.969 in data set [3] (Dispenser Septa) and 2.042 in data set [3] (Dispenser Vial). Besides, the “Mean total number males captured per trap (n): n” value is listed as 218 in data set [3] (Dispenser Septa) and 230 in data set [3] (Dispenser Vial). Further, the “attractiveness to raspberry cane midge males (in words)” value in data set [3] is listed as “highly attractive; also recorded: attracted a significant number”; in data set [3] (listed as 2-acetoxy-5-undecanone), “work exceptionally well”.

Regarding `CCCCC(CCC/C=C\CCCCCC(C)=O)OC(C)=O` (racemic) [racemic (Z)-13-acetoxy-8-heptadecen-2-one, (Z)-13-acetoxy-8-heptadecen-2-one], in the data set with male apple leaf midges (100 micrograms lure), the “distance at which lures attract significant numbers of males” value is listed as “at least 50 m”. Besides, the males caught with male apple leaf midges (100 micrograms lure, 10 m from isolated infested orchard) is recorded as 563; with male apple leaf midges (100 micrograms lure, 20 m from isolated infested orchard) it was 348; in the data set with male apple leaf midges (100 micrograms lure, 30 m from isolated infested orchard) it was 148; with male apple leaf midges (100 micrograms lure, 40 m from isolated infested orchard), 266; in the data set with male apple leaf midges (100 micrograms lure, 50 m from isolated infested orchard), 103. In addition, the “attractiveness to male apple leaf midges (in words)” value is given as “Large numbers” with male apple leaf midges, “strongly attractive effect” in the data set on male apple leaf midges (listed as 13-acetoxy-8-heptadecen-2-one) and “racemic mixtures work exceptionally well” with male apple leaf midges (listed as (Z)-13-acetoxy-8-heptadecen-2-one). Also, in the data set with male apple leaf midges (one test, in one day, released at approximately 1 ng/hr), the “apple leaf midges attracted to a trap” value was 1,600. Moreover, the “average male midges caught” value in the data set on male apple leaf midges (rubber septa 10 micrograms) was determined as 1201; with male apple leaf midges (rubber septa 100 micrograms), 4037. Further, the “average male apple leaf midges caught” value amounted to 12 in the data set on male apple leaf midges (rubber septum lure 1 microgram), 97 with male apple leaf midges (rubber septum lure 3 microgram) and 273 with male apple leaf midges (rubber septum lure 10 microgram).

`CCCCCCC(=O)CCC(C)OC(C)=O` (single isomer, unassigned) [major female-specific component, 2-acetoxy-5-undecanone]: the EAG response entry in data set [2] is “EAG response was always observed”.

Consider `CCCCCCCCCC(C)=O` [2-undecanone], for which the Mean release rate in data set [1] (Interval 3 days, Septa) amounted to 21.6 ng/h; in data set [1] (Interval 3 days, Vial), 41.2 ng/h; in data set [1] (Interval 5 days, Vial), 39.4 ng/h; in data set [1] (Interval 11 days, Septa), 14.3 ng/h; in data set [1] (Interval 11 days, Vial), 39.6 ng/h; in data set [1] (Interval 25 days, Vial), 21.6 ng/h. In data set [1] (Interval 26 days, Septa), this compound came in with a Mean release rate of 9.9 ng/h. For the same compound, the “Mean ratio” value in data set [1] (Interval 3 days, Septa) came out at 26; in data set [1] (Interval 3 days, Vial) it was 111; in data set [1] (Interval 5 days, Vial) it was 84; in data set [1] (Interval 11 days, Septa) it was 42; in data set [1] (Interval 11 days, Vial) it was 48; in data set [1] (Interval 25 days, Vial), 31. Moreover, in data set [1] (Interval 26 days, Septa), the “Mean ratio” value turned out to be 34.
